The IC50 is the concentration at which inhibition is half-maximal.

From patent publication US20160355503A1, “NITROGEN HEXACYCLE COMPOUNDS AS INHIBITORS OF p97 COMPLEX” (Cleave Biosciences, Inc., priority 2015, published 2016) come the findings set out here.

Series [1] has as its target p97 (Homo sapiens, UniProt P55072). Put plainly: P97 ATPase biochemical assay (ADP Glo). The settings on record: 20 nM p97, 20 μM ATP, 37° C. for 15 minutes. The protocol:
The ATPase assay is performed according the following protocol: Purified enzyme (20 nM p97), substrate (20 μM ATP) and a dose titration of compounds are mixed in buffer (50 mM TRIS pH 7.5, 20 mM MgCl2, 0.02% TX-100, 1 mM DTT, 0.2% (v/v) glycerol) and incubated at 37° C. for 15 minutes. The reaction is terminated and the level of product generated is measured using the ADP Glo Assay Kit (Promega, Madison Wis.). Plotting product generated versus compound concentration and using a four-parameter fit model generates an IC50 value for each compounds.
The p97 assay is an initial screening assay used to determine inhibitory activity of the triazine compounds of the invention against the p97 complex. As discussed above, inhibition of activity of the p97 proteosome complex can enable apoptosis and cause elimination of neoplastic cells (cancer cells). The method follows that of Christianson in Nat. Cell Biol., (2011) 14:93.
Assay Buffer is a mixture of 50 mM TRIS pH 7.5, 20 mM MgCl2, 0.02% TX-100, 1 mM DTT and 0.2% (v/v) Glycerol. The well plate is Platetype: Corning 3674, 384w plate. The identification kit is an ADP glo kit (Promega): stop buffer, detection reagent.
Serial dilute compound in DMSO in a 1:3.33-fold 10 point serial dilution.
in each well of 384w plate add the following reagents:
0.5 μL compound serial diluted in DMSO (Final Conc. 10%)
2 μL ATP (Final Conc.=20 uM, diluted in assay buffer)
2.5 μL p97 (Final Conc.=20 nM, diluted in assay buffer)
Incubate at 37 deg C. for 15 min.
Add 5 μL of stop buffer, incubate at RT for 40 min.
Add 10 μL of detection reagent, incubate at RT for 30 min.
Read luminescence on Envision plate reader.
Upon obtaining the data from the luminescence reading, the data may be analyzed as follows:
Normalize luminescence data using no enzyme (full inhibition) and no compound (no inhibition) controls. Plot normalized luminescence data against log-transformed concentration values and fit to a sigmoidal curve to determine IC50 values (done in Collaborative Drug Discovery software).
(In general: ADP-Glo first removes unused ATP, then detects ADP through luciferase.)

For series [2], the system named is A549 cells. Put plainly: Cultured cancer cell viability assay (cell titer glo, CTG). The class given is cell-based. The settings on record: Homo sapiens, 72 hr incubation. The source says: Anti-tumor effects are monitored in cultured cancer cells after several days of compound treatment. The cell titer glo assay (Promega) measures the amount of ATP present as a proxy for cellular viability. Cellular counting is done using high-content microscopy followed by image analysis. A hanging drop 3D-culture system (3D Biomatrix) is used followed by cell titer glo to measure growth in a tumor-like environment.
(§1) The cellular assay provides information about the anti-neoplastic activity of the compounds of the invention. The compounds are tested against cultured cancer cells to determine whether or not the compounds of the invention are capable of intersecting with cancer cells to minimize or eliminate such cells. The assay involves establishing colonies of such cells and then treating them with the test compound under specified conditions and analysis regima to determine results.
(§2) Cell Plating: • Seed cells ˜16 hrs prior to compound treatment • Plate 25 μL of A549 cells in every well of 384-well plate using multidrop. • Two (2) black plates for IF at 2500 cells/well • Let plate sit at room temp for 10-15 minutes prior to putting in incubator to allow cells to stick in middle of plate. • One (1) white plate for viability at 500 cells/well.
(§3) Treat Cells: • Serial dilute compounds with a 10 point 2-fold serial dilution in DMSO to make 250× stock compound solution • Dilute compounds 1:125 in cell culture media to make a 2× solution • Add 25 μl of dilution compounds to cell plates in well duplicates • Put cells back in incubator (6 hr incubation for black plates, 72 hr incubation for white plates).
Viability Assay: • Thaw an aliquot of frozen cell titer glo (Promega G7572) at room temperature. • Add 45 mL of NaCl/PBS solution to 5 ml of cell titer glo (10×). • Remove white plates from incubator, leave at room temp for 30 minutes. • Add 25 μl of diluted cell titer glo to each well. • Shake plate for >1 minute. • Incubate plate for >5 minutes to stabilize luminescence. • Luminescence is stable for up to 3 hours. • Read luminescence on plate reader
On the technique in general: Cellular ATP, detected with luciferase, serves as a proxy for viable cell number.

Series [3] concerns K48-Ub. The experiment in a line: K48-Ub immunofluorescence assay in A549 cells. The class given is cell-based. The conditions noted are these: Homo sapiens, 6 hr incubation. The protocol:
Image-analysis is used to generate quantitative data from these assays that can be fit to a four-parameter sigmoid curve to derive IC50 values. Substrates of the ubiquitin-proteasome system, such as p53, are monitored after tumor cell lines are incubated with compounds for several hours. Accumulation of these proteins indicates an inhibition of proteasome-mediated degradation. Accumulation of lysine-48 chain linkage of poly-ubiquitin is also monitored by immunofluorescence as an indicator of ubiquitin-proteasome system inhibition. Both LC3 and SQSTM1 are mediators of autophagy. The localization and amounts of these proteins are monitored by immunofluorescence and report on the activity and inhibition of autophagy in response to p97 inhibition.
as §1, §2, §3
Fix/Stain Black Plates: • Incubate cells in black plates with compound at 37 deg C. for 6 hrs. • add 15 μL of 16% Paraformaldehyde (PFA) directly into media of each well, • incubate at room temp for 5 min, flick plate and wash in 50 μL of PBS • block in 50 μL of Blocking Buffer for 30 minutes (can go up to several hours) • Blocking buffer: 1×PBS, 1% BSA, 0.3% Triton-X100, Hoechst (1:10,000) • incubate in 25 μL of primary antibody in blocking buffer at 4 deg C. over night
Secondary Antibodies: • AlexaFluor488 Goat anti-Rabbit 1:2,000 (Life Tech A11008) • AlexaFluor555 Goat anti-Mouse 1:2,000 (Life Tech A21422) […]
Data Analysis: • Nuclear counts and cellular intensities of each markers are measured using Hoechst as a nuclear marker with an automated image analysis protocol using Matlab software (Math Works)

Series [4] deals with Caco-2 cells.

p97, sequence (P55072 whole entry): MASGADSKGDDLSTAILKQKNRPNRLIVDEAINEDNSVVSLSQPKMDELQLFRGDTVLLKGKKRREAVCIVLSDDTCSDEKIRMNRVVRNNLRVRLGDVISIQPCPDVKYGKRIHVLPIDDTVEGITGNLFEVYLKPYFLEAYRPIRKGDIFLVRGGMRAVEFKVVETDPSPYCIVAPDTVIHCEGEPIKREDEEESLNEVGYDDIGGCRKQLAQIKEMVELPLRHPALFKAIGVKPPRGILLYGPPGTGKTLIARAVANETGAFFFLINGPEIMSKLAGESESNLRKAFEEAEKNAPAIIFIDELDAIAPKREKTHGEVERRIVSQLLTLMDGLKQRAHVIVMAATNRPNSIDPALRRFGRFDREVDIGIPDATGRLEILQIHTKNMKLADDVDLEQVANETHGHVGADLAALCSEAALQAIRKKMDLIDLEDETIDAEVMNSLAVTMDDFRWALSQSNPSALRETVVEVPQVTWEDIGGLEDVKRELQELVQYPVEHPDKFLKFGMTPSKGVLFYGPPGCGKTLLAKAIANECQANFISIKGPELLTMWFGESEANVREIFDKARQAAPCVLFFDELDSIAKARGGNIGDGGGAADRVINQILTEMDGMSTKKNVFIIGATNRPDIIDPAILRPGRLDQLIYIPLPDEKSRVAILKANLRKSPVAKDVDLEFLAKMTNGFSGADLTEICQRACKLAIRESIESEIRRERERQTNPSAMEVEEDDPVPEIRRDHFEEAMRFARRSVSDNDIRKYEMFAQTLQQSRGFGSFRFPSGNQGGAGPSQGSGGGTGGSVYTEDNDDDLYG

On to `Cc1nc(NCc2ccccc2)nc(-n2c(C)cc3c(C(N)=O)cccc32)n1` [1-(4-(benzylamino)-6-methyl-1,3,5-triazin-2-yl)-2-methyl-1H-indole-4-carboxamide], for which the results for the IC50 in series [1], in series [2] and in series [3] were less than 100 nM, less than 10 µM and less than 3000 nM, respectively.
As for `Cc1nnc(-n2c(C)cc3c(C(N)=O)cccc32)nc1NCc1cccc(F)c1` [1-(5-((3-fluorobenzyl)amino)-6-methyl-1,2,4-triazin-3-yl)-2-methyl-1H-indole-4-carboxamide], the IC50 in series [1] was less than 1000 nM; in series [2] it was less than 10 µM; in series [3] it was less than 3000 nM.
Consider `CCc1nnc(-n2c(C)cc3c(C(N)=O)cccc32)nc1NCc1ccccc1` [1-(5-(benzylamino)-6-ethyl-1,2,4-triazin-3-yl)-2-methyl-1H-indole-4-carboxamide], for which the IC50 in series [1] is less than 30 nM; in series [2], less than 1 µM; in series [3] it was less than 1000 nM.
Consider `COc1nc2c(C#N)cccc2n1-c1nnc(C)c(NCc2ccccc2)n1` [1-(5-(benzylamino)-6-methyl-1,2,4-triazin-3-yl)-2-methoxy-1H-benzo[d]imidazole-4-carbonitrile], for which the IC50 in series [1] is less than 10000 nM.
Take `Cc1nnc(-n2c(C)cc3c(C(N)=O)cccc32)nc1NCc1ccccc1` [1-(5-(benzylamino)-6-methyl-1,2,4-triazin-3-yl)-2-methyl-1H-indole-4-carboxamide]: the IC50 was less than 30 nM in series [1], less than 3 µM in series [2] and less than 3000 nM in series [3].
`Cc1nnc(-n2c(CN)cc3c(C(N)=O)cccc32)nc1NCc1ccccc1` [2-(aminomethyl)-1-(5-(benzylamino)-6-methyl-1,2,4-triazin-3-yl)-1H-indole-4-carboxamide] returned an IC50 in series [1] of less than 10000 nM.
As to `CC(C)NCC(O)COc1cccc2ccccc12` (stereo not shown) [Propranolol], the “Peff A B, Range” value in series [4] (pH 7.4 Caco-2, A to B) was 18.50-36.80 ×E−6 cm/sec. Also, the “Peff B A, Range” value in series [4] (pH 7.4 Caco-2, B to A) is listed as 16.30-31.40 ×E−6 cm/sec.
